{
  "source": "patent US20260376293A1",
  "about": "“METHODS FOR STUDYING GPR158 PHARMACOLOGY AND IDENTIFICATION OF ITS LIGANDS” (UNIVERSITY OF FLORIDA RESEARCH FOUNDATION, INCORPORATED, priority 2022, published 2026)",
  "target": "T1, GPR158 (Homo sapiens, UniProt Q5T848)",
  "T1 sequence (Q5T848 24-1215)": "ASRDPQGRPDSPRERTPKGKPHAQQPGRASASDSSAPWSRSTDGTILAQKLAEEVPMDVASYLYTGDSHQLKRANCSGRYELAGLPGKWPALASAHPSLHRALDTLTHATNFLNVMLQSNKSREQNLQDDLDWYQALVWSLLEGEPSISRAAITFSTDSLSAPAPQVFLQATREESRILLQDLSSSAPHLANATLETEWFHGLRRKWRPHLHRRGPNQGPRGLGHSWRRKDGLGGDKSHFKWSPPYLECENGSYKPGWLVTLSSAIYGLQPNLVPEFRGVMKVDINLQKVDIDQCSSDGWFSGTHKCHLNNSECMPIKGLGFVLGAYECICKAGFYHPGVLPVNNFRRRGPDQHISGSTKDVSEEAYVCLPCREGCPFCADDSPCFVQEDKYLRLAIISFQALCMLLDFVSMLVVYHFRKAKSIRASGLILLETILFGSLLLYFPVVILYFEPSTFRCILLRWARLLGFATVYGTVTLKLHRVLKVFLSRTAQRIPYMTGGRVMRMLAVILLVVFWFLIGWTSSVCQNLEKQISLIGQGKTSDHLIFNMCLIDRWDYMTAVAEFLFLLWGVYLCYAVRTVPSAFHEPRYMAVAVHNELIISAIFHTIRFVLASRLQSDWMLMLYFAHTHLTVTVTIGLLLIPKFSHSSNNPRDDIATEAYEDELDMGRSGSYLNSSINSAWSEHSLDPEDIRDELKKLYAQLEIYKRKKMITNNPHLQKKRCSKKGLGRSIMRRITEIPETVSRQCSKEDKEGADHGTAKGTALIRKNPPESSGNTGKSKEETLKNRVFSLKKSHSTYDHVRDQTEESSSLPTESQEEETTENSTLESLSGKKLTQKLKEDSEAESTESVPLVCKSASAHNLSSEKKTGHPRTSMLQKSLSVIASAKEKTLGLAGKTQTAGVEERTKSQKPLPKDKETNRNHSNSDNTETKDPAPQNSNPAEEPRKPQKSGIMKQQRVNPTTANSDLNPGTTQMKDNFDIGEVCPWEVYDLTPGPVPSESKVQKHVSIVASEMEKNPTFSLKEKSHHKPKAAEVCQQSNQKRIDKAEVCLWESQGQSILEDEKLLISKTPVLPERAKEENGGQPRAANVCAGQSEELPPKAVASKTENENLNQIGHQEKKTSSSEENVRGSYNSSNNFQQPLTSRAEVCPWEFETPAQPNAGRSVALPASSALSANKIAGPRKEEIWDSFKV",
  "assay": "BRET G protein activation assay",
  "assay_type": "cell-based",
  "set-up": "expressed in transfected cells; host or cells: HEK293FT",
  "conditions": "panel of Gα subunits; 0.1 mM; HEK293 cells",
  "protocol": "FIGS. 5A-5I. Lack of the effects of glycine or taurine on GPR158 coupling to G proteins. A) Schematic of the assay design to monitor GPCR induced G protein activation. B-I) Representative traces evaluating G protein activation in BRET-based assay. The assay measures generation of the BRET signal between Gβγ and its reporter masGRK3CT-NLuc co-transfected into HEK293 cells with indicated Gα. The reaction is initiated by the addition of glycine (0.1 mM, square symbols) or taurine (0.1 mM triangle symbols) to GPR158 expressing cells. Control reactions conducted in parallel utilized canonical receptors and their ligands at 0.1 mM. The arrow indicates the injection time point of the ligand.\nThe inventors further tested whether glycine or taurine could induce GPR158 to activate G proteins as canonical GPCRs do. In these experiments, the inventors used a reverse strategy where the inventors monitored generation of the BRET signal in the same assay (FIG. 5A).\nMeasurements of BRET between Venus-Gβ1γ2 and masGRK3ct-Nluc were performed to monitor the release of free Gβγ dimers after activation of heterotrimers containing Gα subunits in living cells (described in detail in Masuho et al., 2015 (40)). […] An empty vector pcDNA3.1(±) was used in order to normalize the quantity of transfected DNA. […]",
  "data": [
    {"smiles": "NCCS(=O)(=O)O", "note": "[taurine, 2-aminoethanesulfonic acid]", "values": [
      {"measurement": "G protein activation via GPR158", "result": "no significant signal generation"}
    ]},
    {"smiles": "NCC(=O)O", "note": "[glycine]", "values": [
      {"measurement": "G protein activation via GPR158", "result": "no significant signal generation"}
    ]}
  ]
}
